Each structure is given as a SMILES string. Where two headings read alike, the source gives them in different places. A value given as a limit tells only on which side of the number the result lay.

Data set [1] in a line: Plasma protein binding by equilibrium dialysis. It is filed as in vitro ADME. As for the experimental part:
The binding of test substances to plasma proteins is determined by equilibrium dialysis by means of the Ht-dialysis apparatus (96-well) made of Teflon and a semipermeable membrane (regenerated cellulose, MWCO 12-14K). This separates 150 μl each of a plasma side and a buffer side (50 mM phosphate buffer). The test substance is added in 2 concentrations (usually 3 and 0.3 μM) to the plasma side and binds to plasma proteins. The unbound fraction of the test substance passes through the membrane and is distributed on either side until equilibrium is established (after approx. 6-8 h at 37° C.). The substance concentration on the buffer side and the plasma side is determined by LC-MS analysis. For this, both sides are brought by dilution with buffer or plasma to the same matrix (10% plasma) and then precipitated with methanol. The free (unbound) fraction (fu) is calculated from the quotient of the buffer and plasma concentration. Stability tests and recovery tests are run concurrently as controls. In addition, the substance in buffer is dialysed against buffer, to check the nonspecific binding to apparatus and membrane and establishment of equilibrium. Because during incubation the osmotic pressure of the plasma proteins leads to dilution of the plasma (volume shift), this possible error is determined by weighing blank plasma samples and is included in the calculation of fu. Establishment of equilibrium and plasma stability should have a value not lower than 80% and the recovery should be at least 30%. A free fraction of <1% is regarded as high, between 1 and 10% as moderate and >10% as low plasma protein binding.

A short description of data set [2]: Membrane affinity logMA (MA-Transil). It is filed as physicochemical. The conditions noted are these: buffer pH 7.4. As for the experimental part: Assays for Determining Membrane Affinity logMA and Protein Binding to Human Serum Albumin (HSA):
Determination of membrane affinity and protein binding to human serum albumin (HSA) was carried out via Transil technology (literature: A. Loidl-Stahlhofen, A. Eckert, T. Hartmann, M. Schöttner J Pharm Sci 90, 599-606 (2001)). Transil® (commercially available from Sovicell in Leipzig, Germany) are glass beads (diameter 10-12 μm) coated with a double-layer membrane of phosphatidylcholine (MA-Transil) or covalently attached human serum albumin (HSA-Transil).
To determine the logMA and the protein binding constant to HSA, the commercially available TRANSIL Intestinal Absorption & HSA Binding Combined Assay Kit was used. This is a 96-well microtitre plate (96 well-MTP) which is filled with Transil and can be used to determine MA-Transil and HSA-Transil binding of in each case eight active compounds. For each active compound, the Transil plate provides a row of 12 wells. Two wells serve as reference and are only filled with buffer pH 7.4. Five further wells contain MA-Transil in various increasing concentrations, the five remaining wells contain HSA-Transil in various increasing concentrations.
To determine binding of an active compound to Transil, the supernatant of the wells with Transil was quantified against the reference solution without Transil via HPLC-MS coupling (HPLC-MS=high performance liquid chromatography/mass spectrometry).
This is how the individual steps of the assay were carried out:
From the internal substance store, the active compounds were delivered in a 96-well MTP. This plate is referred to as mother plate. Each well contained 30 μl of a 10 mmol solution of active compound in DMSO (dimethyl sulphoxide). Two wells at the start (well A1) and at the end of the plate (well H12) were filled with 30 μl of a 10 mmol solution of warfarin in DMSO. Warfarin, whose membrane affinity and binding to HSA is known, serves to check whether the measurement is correct. The mother plate was used to prepare a daughter plate with a 1 to 4000 dilution with a mixture of buffer pH 7.4 and DMSO in a ratio of 1+1. The active compound concentration of each well was 2.5 μmol/liter, the volume of each well was 400 μl.
Using a Hamilton pipetting robot Microlab STAR, the 96 active compounds from the daughter plate were divided onto 12 Transil plates in total. From each well of the daughter plate, 12 times 20 μl were removed. The concentration of each well of the Transil plate was 0.25 μmol/liter, which corresponds to a dilution of 1 to 10. The DMSO content was 5%.
The filled Transil plates were each resuspended for two minutes, then allowed to stand at room temperature for at least two minutes and then centrifuged at 600 rotations per minute for five minutes. The pipetting robot was then used to remove 20 μl of supernatant from each well of the Transil plate and to transfer these to a separate microtitre plate. Here, the supernatants of in each case four Transil plates were pooled in a microtitre plate, so that at the end there were three pooled microtitre plates with in each case 80 μl of solution and an active compound concentration of 62.5 nM per well.
Prior to quantification of the active compounds by HPLC-MS, an optimization has to be carried out for each active compound where by way of a single injection daughter ion and optimum electrical voltages are determined. To this end, the pipetting robot prepared a dilution of the mother plate of 1 to 10 000 000 in an acetonitrile/water mixture in a ratio of 8+2 in a separate microtitre plate. This microtitre plate was measured by HPLC-MS using the software Discovery Quant Optimize from AB Sciex. The three pooled microtitre plates were measured by HPLC-MS using the software Discovery Quant Analyze from AB Sciex. […]

The mark [3] stands for this setting: human plasma, read-out: fu [%] (human).
The mark [4] stands for this setting: mouse plasma, read-out: fu [%] (mouse).
Setting [5] is: rat plasma, read-out: fu [%] (rat).

As for `COC[C@]1(OC)CC[C@@]2(CC1)NC(=O)C(c1cc(-c3ccc(Cl)c(F)c3)ccc1C)=C2O` [Example 1-4, (5r,8r)-3-(4′-Chloro-3′-fluoro-4-methylbiphenyl-3-yl)-4-hydroxy-8-methoxy-8-(methoxymethyl)-1-azaspiro[4.5]dec-3-en-2-one], the fraction unbound is 0.0037 in data set [1] (setting [3]), 0.0217 in data set [1] (setting [4]) and 0.0021 in data set [1] (setting [5]).

Turning to `COC[C@H]1CC[C@]2(CC1)NC(=O)C(c1cc(-c3ccc(Cl)cc3)ccc1C)=C2O` [V.3-b, (5s,8s)-3-(4′-Chloro-4-methylbiphenyl-3-yl)-4-hydroxy-8-(methoxymethyl)-1-azaspiro[4.5]dec-3-en-2-one], in data set [2], the logMA stood at 2.08. Further, the fraction unbound in data set [1] (setting [3]) worked out at 0.0036; in data set [1] (setting [4]), 0.109; in data set [1] (setting [5]), 0.0779.

Turning to `CO[C@]1(C)CC[C@]2(CC1)NC(=O)C(c1cc(-c3ccc(Cl)c(F)c3)ccc1C)=C2O` [Example V.2-a, (5r,8r)-3-(4′-Chloro-3′-fluoro-4-methylbiphenyl-3-yl)-4-hydroxy-8-methoxy-8-methyl-1-azaspiro[4.5]dec-3-en-2-one], in data set [2], the logMA came to 1.67. In data set [1], the “fu [%] (human)” value amounted to 0.39% and the “fu [%] (rat)” value amounted to 0.23%. The “fu [%] (mouse)” value in data set [1] (mouse plasma) was 2.8%.

As for `COC[C@]1(OC)CC[C@@]2(CC1)NC(=O)C(c1cc(-c3ccc(Cl)cc3)ccc1C)=C2O` [Example 1-3, (5r,8r)-3-(4′-Chloro-4-methylbiphenyl-3-yl)-4-hydroxy-8-methoxy-8-(methoxymethyl)-1-azaspiro[4.5]dec-3-en-2-one], in data set [2], the logMA is below 1.0. Further, the fraction unbound in data set [1] (setting [3]) was found to be 0.0041; in data set [1] (setting [4]), 0.038.

Consider `CO[C@]1(C(F)(F)F)CC[C@]2(CC1)NC(=O)C(c1cc(-c3ccc(Cl)cc3)ccc1C)=C2O` [Example 1-1, (5r,8r)-3-(4′-Chloro-4-methylbiphenyl-3-yl)-4-hydroxy-8-methoxy-8-(trifluoromethyl)-1-azaspiro[4.5]dec-3-en-2-one], for which the fraction unbound in data set [1] (setting [3]) was found to be 0.002; in data set [1] (setting [4]) it was 0.0082.

As for `COC[C@H]1CC[C@]2(CC1)NC(=O)C(c1cc(-c3ccc(Cl)c(F)c3)ccc1C)=C2O` [V.4-b, (5s,8s)-3-(4′-Chloro-3′-fluoro-4-methylbiphenyl-3-yl)-4-hydroxy-8-(methoxymethyl)-1-azaspiro[4.5]dec-3-en-2-one], the logMA in data set [2] is on record as 2.13. For the same compound, the fraction unbound in data set [1] (setting [3]) came to 0.0141; in data set [1] (setting [4]), 0.0176; in data set [1] (setting [5]), 0.0011. In addition, the fu ratio mouse/human in data set [1] (mouse and human, plasma, Table 5) turned out to be 1.

Regarding `Cc1ccc(-c2ccc(Cl)c(F)c2)cc1C1=C(O)[C@]2(CC[C@](O)(C(F)(F)F)CC2)NC1=O` [V.2-c, (5r,8r)-3-(4′-Chloro-3′-fluoro-4-methylbiphenyl-3-yl)-4,8-dihydroxy-8-(trifluoromethyl)-1-azaspiro[4.5]dec-3-en-2-one], the logMA in data set [2] was 2.3.

For `CO[C@]1(C(F)(F)F)CC[C@]2(CC1)NC(=O)C(c1cc(-c3ccc(Cl)c(F)c3)ccc1C)=C2O` [Example 1-2, (5r,8r)-3-(4′-Chloro-3′-fluoro-4-methylbiphenyl-3-yl)-4-hydroxy-8-methoxy-8-(trifluoromethyl)-1-azaspiro[4.5]dec-3-en-2-one], the fraction unbound in data set [1] (setting [3]) amounted to 0.0026; in data set [1] (setting [4]), 0.014.

As to `CO[C@]1(C)CC[C@]2(CC1)NC(=O)C(c1cc(-c3ccc(Cl)cc3)ccc1C)=C2O` [Example V.1-a, (5r,8r)-3-(4′-Chloro-4-methylbiphenyl-3-yl)-4-hydroxy-8-methoxy-8-methyl-1-azaspiro[4.5]dec-3-en-2-one], the logMA in data set [2] stood at 1.4. Besides, in data set [1], the “fu [%] (human)” value was 0.38% and the “fu [%] (rat)” value was 0.23%. The “fu [%] (mouse)” value in data set [1] (mouse plasma) turned out to be 2.49%.

Turning to `Cc1ccc(-c2ccc(Cl)cc2)cc1C1=C(O)[C@]2(CC[C@](O)(C(F)(F)F)CC2)NC1=O` [V.1-c, (5r,8r)-3-(4′-Chloro-4-methylbiphenyl-3-yl)-4,8-dihydroxy-8-(trifluoromethyl)-1-azaspiro[4.5]dec-3-en-2-one], in data set [2], the logMA was found to be 2.1.

Source of the values: US9278925B2, “Substituted 3-(biphenyl-3-yl)-4-hydroxy-8-methoxy-1-azaspiro[4.5]dec-3-en-2-one” (BAYER INTELLECTUAL PROPERTY GMBH, priority 2011, dated 2016).
